Measurements published in US20210346384A1, “COMBINATIONS OF TGF-BETA INHIBITORS AND CDK INHIBITORS FOR CANCER TREATMENTS” (PFIZER INC., priority 2018, published 2021).

What was measured:
CT26 tumor cells = test: CT26 syngeneic mouse tumor model (survival and tumor volume); assay type: in vivo; details: for Median Survival: CT26 tumor bearing BALB/cJ mice, PF-06952229 30 mg/kg PO BID 7 days on/7 off, palbociclib 10 mg/kg PO BID, PF-06873600 50 mg/kg PO BID, survival endpoint tumor volume 2000 mm^3
Description: CT26 cells were obtained from American Type Culture Collection (ATCC) and cultured in Roswell Park Memorial Institute (RPM11640) supplemented with 10% fetal bovine serum (FBS). All cells were maintained in a humidified incubator at 37° C. with 5% carbon dioxide (CO2). Female Balb/cJ mice were obtained from Jackson Laboratories at 8 weeks of age. To generate the syngeneic model, 0.25 million CT26 tumor cells were subcutaneously implanted into the right flank of female BALB/cJ mice. Tumor bearing mice were randomized into six treatment groups based on average tumor sizes of approximately 50 mm^3 per group, on Day 10 post tumor cell implantation. Study groups included vehicle, 30 mg/kg PF-06952229, 10 mg/kg PD-0332991 (Palbociclib), PF-06873600 (CDK 2/4/6 inhibitor), combination of PF-06952229 +PD-0332991 and combination of PF-06952229+PF-06873600. PF-06952229 was administered orally twice daily (BID) with 7 days on and 7 days off schedule. PD-0332991 or PF-06873600 was administered orally BID continuously, until the end of the study.
Tumor volumes were measured three times a week. Tumor volume was calculated based on two dimensional caliper measurement with cubic millimeter volume calculated using the formula (length×width2)×0.5. Mice were sacrificed when the tumor volumes reached 2000 mm^3, which was the survival endpoint for this study. Survival curves were plotted using GraphPad Prism 7 software. Statistical analyses were performed using the Log-rank (Mantel-Cox) test.

pSMAD2 = pSMAD2 Bioassay of MCF7 xenograft tumor samples; assay type: in vivo, human; details: tumor samples Day 21 post-treatment initiation; result in words
Description: pSMAD2 Bioassay: Tumor samples were collected and snap-frozen in 2.0 mL cryogenic tubes (Nalgene™) prior to analysis. Thawed tumor samples were homogenized in cell extraction buffer (Invitrogen, Carlsbad, Calif.) with addition of protease and phosphatase inhibitors. Tumor lysates were centrifuged to pellet insoluble debris, and the clarified supernatants were transferred to new tubes. pSmad2 was measured using a 6-Plex TGFbeta Signaling Magnetic Bead Kit (Millipore, Burlington, Mass.). All assays were carried out at room temperature. After blocking a 96-well black round-bottom plate with assay buffer for 10 minutes, 25 μL of the working microsphere bead mixture (beads were diluted to 1× with assay buffer from kit) and 25 μL of 1:10 diluted tumor lysate (1:10 dilution with assay buffer) were added to the plate. […] After washing, the beads were resuspended in 150 μL/well of sheath fluid (Bio-Rad catalog # 171-000055) and analyzed using a Bio-Plex 200 analyzer (Bio-Rad, Hercules Calif.). The mean fluorescence intensity (MFI) from each well was determined using Bio-Plex Manager Software, version 6.1 (Bio-Rad). […]
Total Smad2 Bioassay: PathScan Total Smad2 Sandwich ELISA Kit (Cell signaling, Catolog #7244C) was used to determine the total Smad2 protein according to manufacturer's instructions. […] The absorbance of the samples at 450 nm was measured on a Spectramax plate reader (Molecular Devices).

[1] = system: MCF7 human ER+ breast cancer cells; test: MCF7 human ER+ xenograft mouse tumor model (tumor volume); assay type: in vivo; details: NSG mice; Day 21 post-treatment initiation; PF-06952229 30 mg/kg PO BID 7 on/7 off, PD-0332991 10 mg/kg PO BID, PF-05279929 10 mg/kg SC twice per week; result in words
Description: MCF7 human ER^+ breast cancer cells were obtained from American Type Culture
Collection (ATCC) and cultured in Roswell Park Memorial Institute (RPMI1640) supplemented with 10% fetal bovine serum (FBS). All cells were maintained in a humidified incubator at 37° C. with 5% carbon dioxide (CO2). Female NSG mice were obtained from Jackson Laboratories at 7 weeks of age. To generate the xenograft model, 17β-ESTRADIOL pellets (0.36 mg, 90-day release) were subcutaneously implanted into the left flank of female NSG mice, 7 days before the tumor cell implantation. Then 5 million MCF7 cancer cells were subcutaneously implanted into the right axial region of female NSG mice. Tumor-bearing mice were randomized into treatment groups based on average tumor sizes of approximately 180 mm^3, on Day 27 post-tumor cell implantation, and treatments were initiated. […]
Tumor volumes were measured two times a week. Tumor volume was calculated based on two-dimensional caliper measurement with cubic millimeter volume calculated using the formula (length×width^2)×0.5. Body weights were measured two times a week. […] Comparisons of treated groups to control group or to other treated groups are made using a t statistic under the ANCOVA model with fold change and the associated 95% confidence interval calculated.

pS807/811 Rb = test: Phospho-Rb Ser807/811 Bioassay of MCF7 xenograft tumor lysates; details: tumor samples Day 21 post-treatment initiation; result in words

SMILES | Median Survival (CT26 tumor cells) | Inhibition of pSMAD2 (pSMAD2) | Tumor growth inhibition [1] | pS807/811 Rb levels (pS807/811 Rb) | Tumor growth inhibition (CT26 tumor cells; Day 17 post-treatment initiation, result in words) | Survival (CT26 tumor cells; Day 40 post-treatment initiation, result in words)
C[C@@]1(O)CCC[C@H]1n1c(=O)c(C(F)F)cc2cnc(NC3CCN(S(C)(=O)=O)CC3)nc21 [PF-06873600] | 26.5 days |  |  |  |  | 
CC(C)c1cnc(-c2cc(Cl)ccc2F)cc1Nc1ccncc1C(=O)NC(CO)CO [PF-06952229, 4-(2-(5-chloro-2-fluorophenyl)-5-isopropylpyridin-4-ylamino)-N-(1,3-dihydroxypropan-2-yl)nicotinamide] | 24 days | significant inhibition of pSMAD2 | did not significantly inhibit tumor growth | slight increase | did not significantly inhibit tumor growth | did not significantly increase survival
CC(=O)c1c(C)c2cnc(Nc3ccc(N4CCNCC4)cn3)nc2n(C2CCCC2)c1=O [Palbociclib, 6-acetyl-8-cyclopentyl-5-methyl-2-(5-piperazin-1-yl-pyridin-2-ylamino)-8H-pyrido[2,3-d]pyrimidin-7-one, reference compound] | 26.5 days |  |  | slight decrease |  | 
